Paper PMC5882164, “A novel calcimimetic agent, evocalcet (MT-4580/KHK7580), suppresses the parathyroid cell function with little effect on the gastrointestinal tract or CYP isozymes in vivo and in vitro” (PLoS ONE, 2018)
Several values for one entry are separate records, joined by “and”; a condition that tells them apart may be missing. Equal entries are not always repeated.

System: serum PTH
Assay: 5/6 nephrectomized rats study: serum PTH level
Assay type: in vivo, rat
Conditions: 5/6 Nx rats; for Serum PTH levels before (day 0) and 24 h after evocalcet administration, Mean / Serum PTH levels after the first administration, Mean: group mean; for Serum PTH levels before (day 0) and 24 h after evocalcet administration: individual rats
Protocol: Rats were 5/6 nephrectomized in two steps. Under anesthesia (pentobarbital, 50 mg/kg; intraperitoneally) and analgesia (lidocaine; topically), two-thirds of the left kidney was removed, and then the right kidney was removed after a seven-day interval. Seven days after the completion of 5/6 nephrectomy, the FR-2 diet was changed to a high-phosphate diet, containing 0.6% calcium and 0.9% phosphate (Oriental Yeast Co., Ltd., Tokyo, Japan). Approximately 2 weeks after the initiation of the high-phosphate diet, the 5/6 Nx rats were divided into five groups (n = 12/group) matched in terms of their body weight as well as their blood urea nitrogen (BUN) and serum PTH and calcium levels.
In the single-dose study, blood samples were collected from the tail vein before and at 0.5, 2, 4, 8, 24, 48, and 72 h after the oral administration of vehicle (0.5% methyl cellulose solution) or evocalcet (0.03, 0.1, 0.3, or 1 mg/kg). In the repeated-dose study, vehicle or evocalcet was orally administered to the respective groups once daily for 14 days. Blood samples were obtained from the tail vein before the first administration and after the seventh and last administrations.
The serum PTH level was measured using a Rat Intact PTH ELISA kit (Immutopics, Inc., San Clemente, CA). The serum calcium, phosphate and BUN levels were measured using an auto analyzer (Hitachi High-Technologies Corporation., Tokyo, Japan) or the following test kits: the Calcium E-test WAKO, the Phospha C-test WAKO, or the Blood Urea nitrogen B-test WAKO (Wako Pure Chemical Industries, Ltd., Osaka, Japan).

C[C@@H](N[C@H]1CCN(c2ccc(CC(=O)O)cc2)C1)c1cccc2ccccc12 [evocalcet]
Serum PTH levels after the first administration (0.03 mg/kg, 0 h, group mean of 12 rats): 2235.149
Serum PTH levels after the first administration (0.03 mg/kg, 0 h, individual rat): 3146.838 and 3130.460 and 2411.903 and 1952.597 and 3363.037 and 1097.629
Serum PTH levels after the first administration (0.03 mg/kg, 0.5 h, group mean of 12 rats): 2132.775
Serum PTH levels after the first administration (0.03 mg/kg, 0.5 h, individual rat): 4101.960 and 5220.639 and 2506.611 and 3090.422 and 3558.006 and 125.411
Serum PTH levels after the first administration (0.03 mg/kg, 2 h, group mean of 12 rats): 2186.293
Serum PTH levels after the first administration (0.03 mg/kg, 2 h, individual rat): 4890.509 and 4068.711 and 2185.504 and 3005.600 and 4664.020 and 345.560
Serum PTH levels after the first administration (0.03 mg/kg, 4 h, group mean of 12 rats): 2269.553
Serum PTH levels after the first administration (0.03 mg/kg, 4 h, individual rat): 4679.877 and 4835.119 and 2331.859 and 3883.490 and 3137.288 and 547.391
Serum PTH levels after the first administration (0.03 mg/kg, 8 h, group mean of 12 rats): 2414.885
Serum PTH levels after the first administration (0.03 mg/kg, 8 h, individual rat): 5964.855 and 4334.746 and 2555.658 and 4291.517 and 2662.474 and 769.912
Serum PTH levels after the first administration (0.03 mg/kg, 24 h, group mean of 12 rats): 2792.495
Serum PTH levels after the first administration (0.03 mg/kg, 24 h, individual rat): 4890.842 and 5921.359 and 2295.822 and 3334.469 and 3685.692 and 634.649
Serum PTH levels before (day 0) and 24 h after evocalcet administration, Mean (0.03 mg/kg, day 0 (Before)): 2235.149
Serum PTH levels before (day 0) and 24 h after evocalcet administration (0.03 mg/kg, day 0 (Before), 0.03 mg/kg): 3146.838 and 3130.460 and 2411.903 and 1952.597 and 3363.037 and 1097.629 and 2977.436 and 1709.257 and 736.362 and 1492.356 and 1948.854 and 2855.064
Serum PTH levels before (day 0) and 24 h after evocalcet administration, Mean (0.03 mg/kg, day 7 (24 h)): 1440.297
Serum PTH levels before (day 0) and 24 h after evocalcet administration (0.03 mg/kg, day 7 (24 h), 0.03 mg/kg): 175.760 and 1003.083 and 756.245 and 2355.229 and 3361.800 and 1990.106 and 170.127 and 208.561 and 3498.638 and 332.146 and 1090.222 and 2341.644
Serum PTH levels before (day 0) and 24 h after evocalcet administration, Mean (0.03 mg/kg, day 14 (24 h)): 2303.348
Serum PTH levels before (day 0) and 24 h after evocalcet administration (0.03 mg/kg, day 14 (24 h), 0.03 mg/kg): 4997.693 and 3995.599 and 1879.977 and 3492.362 and 3523.261 and 468.569 and 465.344 and 1621.501 and 608.285 and 1702.644 and 1919.474 and 2965.469
Serum PTH levels after the first administration (0.1 mg/kg, 0 h, individual rat): 2191.024 and 4476.799 and 4734.069 and 3561.219 and 1608.879 and 3394.625 and 2344.750 and 2855.532 and 1478.317 and 2515.323
Serum PTH levels after the first administration (0.1 mg/kg, 0.5 h, individual rat): 697.065 and 166.990 and 643.814 and 188.145 and 87.713 and 1427.254 and 2994.134 and 497.193 and 52.922 and 216.107
Serum PTH levels after the first administration (0.1 mg/kg, 2 h, individual rat): 921.070 and 152.688 and 1274.188 and 268.767 and 48.850 and 837.618 and 3213.565 and 734.412 and 45.617 and 171.332
Serum PTH levels after the first administration (0.1 mg/kg, 4 h, individual rat): 1346.496 and 622.337 and 1091.618 and 881.643 and 178.355 and 1445.792 and 3885.042 and 1344.283 and 585.655 and 429.439
Serum PTH levels after the first administration (0.1 mg/kg, 8 h, individual rat): 1602.872 and 1239.629 and 2688.836 and 1069.819 and 616.193 and 1780.899 and 3893.446 and 2481.366 and 541.217
Serum PTH levels after the first administration (0.1 mg/kg, 24 h, individual rat): 2327.970 and 3050.546 and 5188.511 and 1270.996 and 1634.838 and 3384.643 and 3324.854 and 2293.418 and 169.556
Serum PTH levels before (day 0) and 24 h after evocalcet administration, Mean (0.1 mg/kg, day 0 (Before)): 3005.615
Serum PTH levels before (day 0) and 24 h after evocalcet administration (0.1 mg/kg, day 0 (Before), 0.1 mg/kg): 2191.024 and 4476.799 and 4734.069 and 3561.219 and 1608.879 and 3394.625 and 2344.750 and 2855.532 and 1478.317 and 2515.323 and 3938.529 and 2968.311
Serum PTH levels before (day 0) and 24 h after evocalcet administration, Mean (0.1 mg/kg, day 7 (24 h)): 2408.528
Serum PTH levels before (day 0) and 24 h after evocalcet administration (0.1 mg/kg, day 7 (24 h), 0.1 mg/kg): 1659.111 and 1709.141 and 1368.206 and 692.961 and 2049.745 and 3311.770 and 3632.825 and 4438.329 and 2720.020 and 2668.995 and 3977.154 and 674.076
Serum PTH levels before (day 0) and 24 h after evocalcet administration, Mean (0.1 mg/kg, day 14 (24 h)): 1395.021
Serum PTH levels before (day 0) and 24 h after evocalcet administration (0.1 mg/kg, day 14 (24 h), 0.1 mg/kg): 1994.437 and 1611.022 and 2757.774 and 1453.572 and 176.238 and 2214.760 and 1548.955 and 1921.086 and 242.603 and 1372.697 and 1155.599 and 291.504
Serum PTH levels before (day 0) and 24 h after evocalcet administration, Mean (0.3 mg/kg, day 0 (before)): 2359.764
Serum PTH levels before (day 0) and 24 h after evocalcet administration (0.3 mg/kg, day 0 (before), 0.3 mg/kg): 1632.745 and 2446.532 and 2253.029 and 2449.574 and 3238.325 and 2017.644
Serum PTH levels before (day 0) and 24 h after evocalcet administration, Mean (0.3 mg/kg, day 7 (24 h)): 387.934
Serum PTH levels before (day 0) and 24 h after evocalcet administration (0.3 mg/kg, day 7 (24 h), 0.3 mg/kg): 516.033 and 370.580 and 777.450 and 52.037 and 15.500 and 862.269
Serum PTH levels before (day 0) and 24 h after evocalcet administration, Mean (0.3 mg/kg, day 14 (24 h)): 440.352
Serum PTH levels before (day 0) and 24 h after evocalcet administration (0.3 mg/kg, day 14 (24 h), 0.3 mg/kg): 134.323 and 160.654 and 218.153 and 43.180 and 221.109 and 481.197
Serum PTH levels after the first administration, Mean (0.3 mg/kg, time 0 h): 2359.764
Serum PTH levels after the first administration, Mean (0.3 mg/kg, time 0.5 h): 200.671
Serum PTH levels after the first administration, Mean (0.3 mg/kg, time 2 h): 273.789
Serum PTH levels after the first administration, Mean (0.3 mg/kg, time 4 h): 614.302
Serum PTH levels after the first administration, Mean (0.3 mg/kg, time 8 h): 1297.802
Serum PTH levels after the first administration, Mean (0.3 mg/kg, time 24 h): 1196.310
Serum PTH levels before (day 0) and 24 h after evocalcet administration, Mean (1 mg/kg, day 0 (before)): 2488.277
Serum PTH levels before (day 0) and 24 h after evocalcet administration (1 mg/kg, day 0 (before), 1 mg/kg): 3077.112 and 1497.503 and 1942.068 and 2386.399
Serum PTH levels before (day 0) and 24 h after evocalcet administration, Mean (1 mg/kg, day 7 (24 h)): 641.383
Serum PTH levels before (day 0) and 24 h after evocalcet administration (1 mg/kg, day 7 (24 h), 1 mg/kg): 740.010 and 15.500 and 123.742
Serum PTH levels before (day 0) and 24 h after evocalcet administration, Mean (1 mg/kg, day 14 (24 h)): 594.302
